# In PMC9036627, “Global update on the susceptibility of human influenza viruses to neuraminidase inhibitors, 2013–2014” (Antiviral research, 2015):
# Columns and labels:
# [1] = tested on: neuraminidase (NA) of B/Victoria-lineage viruses; type: biochemical, influenza B/Victoria-lineage virus; settings: B/Victoria-lineage, no NA amino acid substitution (None); n=3; range
# [2] = tested on: neuraminidase (NA) of B/Yamagata-lineage viruses; type: biochemical, influenza B/Yamagata-lineage virus; settings: for IC50 fold-change compared to reference median IC50 values: B/Yamagata-lineage, no NA amino acid substitution (None), n=3, range
# [3] = tested on: neuraminidase (NA) of B/Yamagata-lineage viruses; set-up: method as in Oakley et al., 2010; settings: B/Yamagata-lineage virus, observed before, ref Oakley et al., 2010; cited from earlier work
SMILES,IC50 fold-change compared to reference median IC50 values [1],IC50 fold-change compared to reference median IC50 values [2],inhibition category conferred by NA D197N [3],Included in phenotypic analysis: inhibition category (HRI/RI/NI) [2]
"CCC(CC)[C@H](NC(C)=O)[C@@H]1[C@H](O)[C@@H](C(=O)O)C[C@H]1N=C(N)N [Peramivir, peramivir]",0.9–6.5 fold,2.0–7.8 fold,RI (RI 5 to 50-fold),–
"[H]/N=C(\N)N[C@H]1C=C(C(=O)O)O[C@@H]([C@H](OC)[C@H](O)CO)[C@@H]1NC(C)=O [Laninamivir, laninamivir]",0.7–4.7 fold,0.6–5.1 fold,–,"Yes (RI to zanamivir, oseltamivir, peramivir and laninamivir) (key: NI < 5-fold; RI 5 to 50-fold; HRI > 50-fold)"
"CC(=O)N[C@H]1[C@H]([C@H](O)[C@H](O)CO)OC(C(=O)O)=C[C@@H]1N=C(N)N [Zanamivir, zanamivir]",0.7–8.7 fold,0.9–5.3 fold,RI (RI 5 to 50-fold),"Yes (RI to zanamivir, oseltamivir, peramivir and laninamivir) (key: NI < 5-fold; RI 5 to 50-fold; HRI > 50-fold)"
"CCOC(=O)C1=C[C@@H](OC(CC)CC)[C@H](NC(C)=O)[C@@H](N)C1 [Oseltamivir, oseltamivir]",0.6–4.1 fold,1.7–10 fold,–,–
